Patent US20140127158A1, “COMBINATION THERAPY FOR HEPATITIS C VIRUS INFECTION” (National Health Research Institute, priority 2012, published 2014)
Read-outs that look alike come from different tables or passages of the source.

Tests used:
[1] = system: HCV genotype 1b replicon (Con1); settings: HCV1b replicon; Gao et al., Nature 2010; cited from earlier work
[2] = system: HCV genotype 2a replicon (JFH1); settings: Gao et al., Nature 2010; cited from earlier work
Cytotoxicity assay (MTT) = format: cell-based; settings: human
Experimental: (§1) (4) Cytotoxicity assay. The sensitivity of the cell lines to inhibitors was examined using a 3-(4,5-Dimethylthiazol-2-yl)-2,5-diphenyltetrazolium bromide (MTT) assay. Briefly, Huh-7.5 cells were plated at a density of 1×10^5 cells per well in 12-well plates containing 1 mL of culture medium for 4 h. Serial dilutions of the compounds or DMSO (negative control) were added, and the plates were incubated for an additional 72 h. The MTT reagent was then added to each well, and the plates were incubated for 3 h at 37° C. in a humidified 5% CO2 atmosphere before reading at a wavelength of 563 nm using an ELISA plate reader. All data are presented as the means +/−SD from four independent experiments.

HCV genotype 1b replicon = assay: Inhibitor combination study (combination index, CalcuSyn); settings: at the concentrations used in the combination experiments
[3] = system: HCV genotype 1b replicon (Con1); assay: Inhibitory assay for HCV replicons (luciferase), genotype 1b Con1; format: cell-based, Hepatitis C virus; settings: HCV-1b replicon cell lines, single agent
Experimental: (2) Cell culture and HCV inhibitors. Huh-7.5 cells and their derivative HCV replicon cell lines were maintained in Dulbecco's modified Eagle's medium (DMEM, Gibco/BRL) that was supplemented with 100 U/mL penicillin-streptomycin (Gibco/BRL), 0.1 mM nonessential amino acid (NEAA, Gibco/BRL) and 10% fetal bovine serum (FBS) heat inactivated at 37° C. in 5% CO2. The HCV replicon cell lines were isolated from colonies as described in Lohman et al., Science 285:110-3 (1999). The culture medium for the replicon cells was additionally supplemented with 0.25 to 0.5 mg/mL of G418, unless specified otherwise. Compound DBPR110 and sofosbuvir were synthesized at the Institute of Biotechnology and Pharmaceutical Research at the National Health Research Institutes in Taiwan. Telaprevir (Lin et al., Antimicrob Agents Chemother, 50:1813-22 (2006)) was purchased from Acme Biosciences (Belmont, Calif.). The compounds were stored at −20° C. as 10 to 500 mM dimethyl sulfoxide (DMSO) stock solutions until the assay. IFN-α was purchased from Calbiochem (La Jolla, Calif.) and stored at −80° C.
(3) Inhibitory assay for HCV replicons. Cells were seeded at 1×10^4 (high-throughput screening assay) or 1×10^5 (regular assay) cells/well in 96- or 12-well plate, respectively, and incubated for 4 h. The medium was then aspirated and replaced with 0.1 (96-well plate) or 1 (12-well plate) mL of complete medium containing a single compound or combinations of compounds in serial concentration(s). The plates with compounds were incubated for 72 h and then assayed for luciferase expression (Promega). The EC50 of each compound was determined independently and used to determine the range of concentrations used for the combination experiments. All data are presented as the means±standard deviations (SD) from three independent experiments. The selectivity index (SI) was calculated as the ratio of the CC50 to the EC50.

Huh-7.5 cells = assay: Cytotoxicity assay (MTT); format: cell-based; settings: HCV-1b replicon cell lines; single agent
Experimental: as §1

[4] = HCV-1b replicon cell lines, single agent, read-out: CC50
[5] = Hepatitis C virus, read-out: EC50
[6] = Hepatitis C virus, read-out: EC90

| Compound | EC50 [1] | EC50 [2] | CC50 at 72 h (Cytotoxicity assay (MTT); [4]) | cytotoxicity (HCV genotype 1b replicon) | EC50 [3, 5] | EC90 [3, 6] | CC50 at 72 h (Cytotoxicity assay (MTT)) | CC50 (Huh-7.5 cells) | EC50 [3] | EC90 [3] |
| --- | --- | --- | --- | --- | --- | --- | --- | --- | --- | --- |
| COC(=O)N[C@H](C(=O)N1CCC[C@H]1c1nc(-c2ccc(-c3ccc(-c4c[nH]c([C@@H]5CCCN5C(=O)[C@@H](NC(=O)OC)C(C)C)n4)cc3)cc2)c[nH]1)C(C)C [BMS-790052] | 0.009 nM | 0.071 nM |  |  |  |  |  |  |  |  |
| CC(C)(C)NC(=O)N[C@H](C(=O)N1C[C@H]2[C@@H]([C@H]1C(=O)NC(CC1CCC1)C(=O)C(N)=O)C2(C)C)C(C)(C)C (stereo partly drawn) [Boceprevir, boceprevir, reference compound] |  |  | > 5000 nM | No cytotoxicity was observed | 361 ± 19.9 nM | 962 ± 21.5 nM |  |  |  |  |
| NC(=O)c1ncn([C@@H]2O[C@H](CO)[C@@H](O)[C@H]2O)n1 [Ribavirin, ribavirin, reference compound] |  |  |  |  | 20500 ± 3500 nM | 95000 ± 20100 nM | > 200000 nM |  |  |  |
| CC(C)OC(=O)[C@H](C)N[P@](=O)(OC[C@H]1O[C@@H](n2ccc(=O)[nH]c2=O)[C@](C)(F)[C@@H]1O)Oc1ccccc1 [Sofosbuvir, sofosbuvir, reference compound] |  |  | > 5000 nM | No cytotoxicity was observed | 91.5 ± 18.3 nM | 323 ± 66.1 nM |  |  |  |  |
| CCC[C@H](NC(=O)[C@@H]1[C@H]2CCC[C@H]2CN1C(=O)[C@@H](NC(=O)[C@@H](NC(=O)c1cnccn1)C1CCCCC1)C(C)(C)C)C(=O)C(=O)NC1CC1 [Telaprevir, telaprevir, reference compound] |  |  | > 5000 nM | No cytotoxicity was observed | 301.6 ± 2.8 nM | 912 ± 75.4 nM |  |  |  |  |
| IFN-α |  |  |  | No cytotoxicity was observed |  |  |  | >2,000 IU/mL | 35.1±4.7 IU/mL | 327.0 ± 0.01 IU/mL |
